From patent US20150374734A1, “ACTIVATION OF iNKT CELLS” (INSERM (INSTITUT NATIONAL DE LA SANTÉ ET DE LA RECHERCHE …, priority 2013, published 2015)

How the values were obtained:
[1] = tested on: splenic iNKT cells; experiment: Primary iNKT cell activation in vivo (intracellular IFN-γ, serum IL-4); set-up: species or system mouse
Experimental: (§1) FIG. 1: DCs are crucial for iNKT cell primo-activation and for the prevention of iNKT cell anergy. (A) Transgenic CD11c.DTR mice were injected with PBS or DT 24 h before α-GalCer inoculation (100 ng/mouse). (B) Spleen DCs were sorted on the basis of CD11c expression and sensitized for 2 h with α-GalCer (25 ng/ml). Mice were then injected with α-GalCer-sensitized DCs or free α-GalCer (100 ng/mouse). A and B, Mice were euthanized 3 h after α-GalCer (A and B) or DC/α-GalCer (B) inoculation (primo-activation, grey) or received a second intravenous injection of α-GalCer (100 ng/mouse) 7 days later (recall response, black). In these later groups, animals were sacrificed 3 h after α-GalCer challenge. Splenic iNKT cells were then analysed for intracellular IFN-γ production. A representative experiment out of two (A) or three (B) is shown (mean±SD) (n=4). ** p<0.01, * p<0.05 (unpaired Student's t test).
FIG. 4: Encapsulation of α-GalCer in NP/DEC205 efficiently activates iNKT cells in vivo. Mice were intravenously injected with PBS alone or α-GalCer either in a free soluble form or encapsulated into NP/DEC205 or NP/IgG (5 ng α-GalCer/mouse). […] Production of IL-4 in the sera was quantified by ELISA (right panel) (n=3-8). […] The expression of CD86 (expressed as MFI) by DCs (CD11c^hi) is depicted. […]
FIG. 5: Targeting α-GalCer into CD8α^+ DCs prevents iNKT cell anergy in vivo. […] Production of IL-4 in the sera was quantified by ELISA (right panel). […]
Cells were resuspended in the appropriate combination of Abs to allow identification of DC subsets (anti-CD11c, anti-CD8α, anti-CD11b), iNKT cells (anti-TCRβ, PBS-57-loaded CD1d tetramer), NK cells (anti-CD3ε, anti-NK1.1) or γδ T lymphocytes (anti-TCRγδ, anti-CD3ε). […] Expression of intracellular IFN-γ was analysed as previously described.^32 To measure Cy5-α-GalCer incorporation by splenic DC subsets, mice were intravenously injected with Cy5-conjugated α-GalCer (20 μg) and 2 h later, incorporation of Cy5 by spleen DC subsets was analysed by flow cytometry. […]

[2] = tested on: splenic iNKT cells; experiment: iNKT cell recall response / anergy in vivo; set-up: species or system mouse
Experimental: as §1
FIG. 5: Targeting α-GalCer into CD8α^+ DCs prevents iNKT cell anergy in vivo. Mice were intravenously injected with PBS, free α-GalCer (100 ng/mouse) or α-GalCer encapsulated into NP/DEC205 or NP/IgG (5 ng/mouse). A, After 3 h, mice were bled and splenic iNKT cells were screened for intracellular IFN-γ production. The average percentages±SD of iNKT cells positive for IFN-γ are represented (left panel). Production of IL-4 in the sera was quantified by ELISA (right panel). B, Mice received, 7 days later, a second injection of free α-GalCer ([…]) and spleen iNKT cells were screened for intracellular IFN-γ production 3 h later. […] A representative experiment out of two is shown (mean±SD) (n=3) C, The percentage±SD of iNKT cells expressing PD-1 is represented (7 days after α-GalCer stimulation). A representative experiment out of two is shown (n=4). ** p<0.01, * p<0.05 (unpaired Student's t test).
Mice were administrated intravenously with 200 μl of PBS containing 5 ng of free (or 100 ng as a control) or encapsulated α-GalCer. […] Splenic iNKT cells were analysed for intracellular IFN-γ expression and IFN-γ and IL-4 concentrations in the sera were determined by ELISA.

[3] = tested on: sorted hepatic NKT cells; experiment: Ex vivo stimulatory capacity of in vivo α-GalCer-loaded DC subsets on NKT cells; type: cell-based, mouse; conditions: DCs sorted 2 h after i.v. α-GalCer 2 μg; 48 h co-culture
Experimental: (§2) FIG. 2: CD8α^+ and CD8α^− DCs differ in their ability to activate iNKT cells. A, B and C, Mice were intravenously injected with α-GalCer (2 μg). Two hours later, splenic CD8α^+ and CD8α^− DCs were sorted on the basis of CD11c, CD11b and CD8 expression (A) and co-cultured with sorted NKT cells (B) or with the α-GalCer-responsive IL-2-producing iNKT cell hybridoma DN32.D3 as a readout of Ag presentation (C). B and C, Cytokine production was quantified by ELISA. Results represent the mean±SD of four experiments. D, CD1d expression on CD8α^+ and CD8α^− DCs was assessed by flow cytometry. The staining with the isotype control was identical on both DC subsets. […] E, Recipient mice were intravenously injected with Cy5-conjugated, or unconjugated as a control, α-GalCer (20 μg) and Cy5 incorporation by CD8α^+ DCs (grey) and CD8α^− DCs (black) was analyzed by flow cytometry 2 h later. […]
(§3) To assess the capacity of DCs to bind/uptake PLGA-based NPs, bone marrow-derived DCs (BM-DCs) (5×10^5 cells/well)^32 or spleen mononuclear cells (MNCs) (1×10^6 cells/well) were exposed with AlexaFluor647-labelled particles (10 μg/ml and 100 μg/ml, respectively) during 2 h at 37° C. After extensive washes, BM-DC (CD11c^+ DEC205^+/−) and spleen CD8α^+ and CD8α^− DCs were analysed by flow cytometry. […] Production of IFN-γ, IL-4 and IL-2 was measured in the culture supernatants by ELISA (R&D systems).

[4] = tested on: iNKT cell hybridoma DN32.D3; experiment: Ex vivo stimulatory capacity of in vivo α-GalCer-loaded DC subsets on DN32.D3; type: cell-based, mouse; conditions: DCs sorted 2 h after i.v. α-GalCer 2 μg; 24 h co-culture
Experimental: as §2, §3

CCCCCCCCCCCCCCCCCCCCCCCCCC(=O)N[C@@H](CO[C@H]1O[C@H](CO)[C@H](O)[C@H](O)[C@H]1O)[C@H](O)[C@H](O)CCCCCCCCCCCCCC [α-GalCer, (2S,3S,4R)-1-O-(alpha-D-galactosyl)-N-hexacosanoyl-2-amino-1,3,4-octadecanetriol]
Primary iNKT cell activation after DC depletion ([1]; CD11c.DTR mice, DT 24 h before, α-GalCer 100 ng/mouse): strongly lowered the extent of primary iNKT cell activation
Primary iNKT cell activation, low dose in NP/DEC205 vs high dose free ([1]; NP/DEC205 5 ng/mouse, free α-GalCer 100 ng/mouse, 3 h): comparable primary iNKT cell activation
Primary iNKT cell activation, free α-GalCer vs α-GalCer-sensitized DCs ([1]; free 100 ng/mouse, DCs sensitized 2 h with 25 ng/ml, 3 h): triggered a similar primary activation of iNKT cells
PD-1 expression on iNKT cells ([2]; 7 days after α-GalCer stimulation, listed as free α-GalCer): induced enhanced PD-1 expression on iNKT cells
Recall response when DCs lacking at primary stimulation ([2]; CD11c.DTR mice treated with DT, α-GalCer 100 ng/mouse, rechallenge day 7): totally blunted
iNKT cell anergy (IFN-γ recall response) ([2]; second injection of free α-GalCer 100 ng 7 days later, 3 h): induced the expected iNKT cell anergy
Secretion of IFN-γ and IL-4 by NKT cells co-cultured with DC subsets [3]: CD8α^+ DCs promoted a much stronger secretion of IFN-γ and IL-4
IL-2 production by DN32.D3 co-cultured with DC subsets [4]: CD8α^+ DCs triggered a higher IL-2 production by the iNKT cell hybridoma DN32.D3
